Literature values as cited in US12194143B2, “Mycophenolate oral suspension” (LIQMEDS WORLDWIDE LIMITED, priority 2018, dated 2025).
Structures can show the parent of a compound that is named as a salt. Where two headings read alike, the source gives them in different places.

solubility (in 95% ethanol): soluble
solubility (in methanol): soluble
solubility (in water): slightly soluble
Structure (SMILES): C[C@@H](NCCCc1cccc(C(F)(F)F)c1)c1cccc2ccccc12 [Cinacalcet hydrochloride, N-[1-(R)-(−)-(1-naphthyl)ethyl]-3-[3-(trifluoromethyl)phenyl]-1-aminopropane]
